{"source": "patent US8846110B2", "about": "“Polymeric systems for the delivery of anticancer drugs” (Rexahn Pharmaceuticals, Inc., priority 2009, dated 2014)", "key": {"Caki-1": {"test_system": "Caki-1", "assay": "In vitro cell proliferation (SRB) assay, Caki-1", "format": "cell-based", "conditions": "Homo sapiens, drug equivalent, 96 hours incubation, SRB method"}, "MDA-MB-231 (breast)": {"test_system": "MDA-MB-231 (breast)", "assay": "In vitro cell proliferation (SRB) assay, MDA-MB-231", "format": "cell-based", "conditions": "Homo sapiens, drug equivalent, 96 hours incubation, SRB method", "method": "(§1) Cancer cell lines to determine the effect of polymer-drug conjugates were obtained from the following sources: Human MDA-MB-231 (breast), HCT116 (colon) and PANC-1 (pancreas), from the American Type Culture Collection (ATCC) (Manassas, Va.). UMRC2 (kidney) from United States National Cancer Institute (Bethesda, Md.). Cells were maintained in Dulbecco's modified Eagle's medium (“DMEM”, Invitrogen) supplemented with 10% FBS, P/S and 10 mM HEPES. All cells were incubated at 37° C. under humidified 5% CO2.\n(§2) The growth inhibition assay of polymer-drug conjugates against human cancer cell lines was performed using the Sulforhodamine B (“SRB”) method (Skehan et al., J. National Cancer Institute, 82: 1107-1112 (1990)). […] After 5 minutes agitation in 10 mM Tris solution, the absorbance of each well was measured at 530 nm using Benchmark Plus Microplate reader (Bio-Rad Laboratories, Hercules, Calif.). The absorbance value provides a direct measure of the number of live cells post-treatment with copolymer-drug conjugates.\n(§3) To translate the OD530 values into the number of live cells in each well, the OD530 values were compared to those on standard OD530—versus—cell number curves generated for each cell line. The percent survival was calculated using the formula: % Survival=live cell number [test]/live cell number [control]×100\n(§4) The IC50 values were calculated by non-linear regression analysis."}, "HCT116 (colon)": {"test_system": "HCT116 (colon)", "assay": "In vitro cell proliferation (SRB) assay, HCT116", "format": "cell-based", "conditions": "Homo sapiens, HCT-116; drug equivalent; 96 hours incubation; SRB method", "method": "as §1, §2, §3, §4"}, "[1]": {"molecular_target": "glycosylphosphatidylinositol-linked folate receptor (FR)", "conditions": "high affinity folate receptor; cited from earlier work"}, "reduced folate carrier": {"molecular_target": "T1, reduced folate carrier (Homo sapiens, UniProt P41440)", "T1 sequence (P41440 1-591)": "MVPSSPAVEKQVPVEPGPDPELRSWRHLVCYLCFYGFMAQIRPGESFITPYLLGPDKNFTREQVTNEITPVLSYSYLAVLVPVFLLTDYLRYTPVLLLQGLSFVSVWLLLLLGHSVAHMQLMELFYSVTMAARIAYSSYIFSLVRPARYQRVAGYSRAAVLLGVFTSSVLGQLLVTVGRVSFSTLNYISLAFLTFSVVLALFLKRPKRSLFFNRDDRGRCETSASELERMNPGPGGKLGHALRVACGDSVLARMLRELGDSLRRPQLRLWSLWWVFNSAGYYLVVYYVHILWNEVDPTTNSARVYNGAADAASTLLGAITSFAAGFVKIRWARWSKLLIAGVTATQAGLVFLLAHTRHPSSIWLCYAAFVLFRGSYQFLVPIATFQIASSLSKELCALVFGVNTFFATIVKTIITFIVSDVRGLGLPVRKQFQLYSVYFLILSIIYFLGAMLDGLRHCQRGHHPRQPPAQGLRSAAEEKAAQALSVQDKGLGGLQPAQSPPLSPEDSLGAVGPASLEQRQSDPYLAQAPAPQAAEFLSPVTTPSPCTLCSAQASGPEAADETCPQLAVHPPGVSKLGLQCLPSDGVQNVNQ", "conditions": "low affinity reduced folate carrier, cellular uptake; cited from earlier work"}, "mucin-1": {"molecular_target": "mucin-1 (Homo sapiens, UniProt P15941)", "sequence (P15941 24-1255)": "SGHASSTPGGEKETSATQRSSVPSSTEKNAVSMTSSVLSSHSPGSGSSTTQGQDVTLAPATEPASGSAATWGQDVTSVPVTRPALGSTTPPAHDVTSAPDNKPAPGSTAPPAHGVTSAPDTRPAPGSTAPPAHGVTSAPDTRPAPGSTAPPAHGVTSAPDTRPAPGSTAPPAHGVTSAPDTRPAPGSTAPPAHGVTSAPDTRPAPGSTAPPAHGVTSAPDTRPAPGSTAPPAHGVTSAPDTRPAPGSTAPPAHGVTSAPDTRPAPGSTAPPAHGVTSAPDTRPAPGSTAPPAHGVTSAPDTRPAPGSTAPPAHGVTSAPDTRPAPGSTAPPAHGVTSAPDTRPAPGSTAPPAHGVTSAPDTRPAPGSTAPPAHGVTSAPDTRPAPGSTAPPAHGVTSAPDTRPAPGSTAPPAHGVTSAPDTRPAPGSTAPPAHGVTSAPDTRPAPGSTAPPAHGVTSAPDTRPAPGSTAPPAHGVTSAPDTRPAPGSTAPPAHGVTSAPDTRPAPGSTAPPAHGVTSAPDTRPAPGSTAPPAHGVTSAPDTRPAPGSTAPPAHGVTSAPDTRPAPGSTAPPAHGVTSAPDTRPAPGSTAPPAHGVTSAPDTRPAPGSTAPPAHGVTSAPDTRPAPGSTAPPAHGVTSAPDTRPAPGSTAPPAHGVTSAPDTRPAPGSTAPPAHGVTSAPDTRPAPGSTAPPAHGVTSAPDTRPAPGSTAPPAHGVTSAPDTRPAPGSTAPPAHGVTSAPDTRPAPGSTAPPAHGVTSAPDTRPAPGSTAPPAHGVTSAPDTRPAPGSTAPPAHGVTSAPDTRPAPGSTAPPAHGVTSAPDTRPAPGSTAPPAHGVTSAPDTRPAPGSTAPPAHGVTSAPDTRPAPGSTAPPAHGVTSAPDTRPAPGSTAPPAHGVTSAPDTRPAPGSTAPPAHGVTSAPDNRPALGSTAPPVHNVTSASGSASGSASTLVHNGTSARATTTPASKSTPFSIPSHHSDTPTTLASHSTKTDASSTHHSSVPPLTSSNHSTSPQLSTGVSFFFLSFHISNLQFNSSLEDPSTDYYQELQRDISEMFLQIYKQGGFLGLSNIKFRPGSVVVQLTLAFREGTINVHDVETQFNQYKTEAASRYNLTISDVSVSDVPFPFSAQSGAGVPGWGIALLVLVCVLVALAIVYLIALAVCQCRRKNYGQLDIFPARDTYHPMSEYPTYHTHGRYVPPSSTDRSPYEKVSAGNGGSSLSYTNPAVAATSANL", "conditions": "specific ligand of mucin-1; cited from earlier work"}}, "data": [{"compound": "CC(=O)O[C@@]12CO[C@@H]1C[C@H](O)[C@@]1(C)C(=O)[C@H](O)C3=C(C)[C@@H](OC(=O)[C@H](O)[C@@H](NC(=O)OC(C)(C)C)c4ccccc4)C[C@@](O)([C@@H](OC(=O)c4ccccc4)[C@H]21)C3(C)C", "note": "[Docetaxel, docetaxel]", "values": [{"measurement": "IC50", "setting": "Caki-1", "result": 0.001, "unit": "µM"}, {"measurement": "IC50", "setting": "MDA-MB-231 (breast)", "result": 0.0015, "unit": "µM"}, {"measurement": "IC50", "setting": "HCT116 (colon)", "result": 0.00058, "unit": "µM"}]}, {"compound": "Nc1nc2ncc(CNc3ccc(C(=O)N[C@@H](CCC(=O)O)C(=O)O)cc3)nc2c(=O)[nH]1", "note": "[folates, Folic acid]", "values": [{"measurement": "Kd", "setting": "[1]", "result": "~0.1", "unit": "nM"}, {"measurement": "Km", "setting": "reduced folate carrier", "result": "~1000", "unit": "nM"}]}, {"compound": "YCAREPPTRTFAYWG [EPPT1]", "values": [{"measurement": "Kd", "setting": "mucin-1", "result": 20, "unit": "µM"}]}]}
